The data set can be described thus: in vitro. Particulars: human, hela cells, % viability.

Consider `N#CCCN(C(=O)Nc1ccccc1Cl)C1CCCCC1` [CBK156366], for which the viability at 28.5 h, 10 µM was 86.8%.
Same read-out and setting: under `Cc1cc(Cl)ccc1OCC(O)CN1CCN(Cc2ccc3c(c2)OCO3)CC1` (centres unmarked) [CBK074383] stands 92.3%; under `Cn1c(=O)c2c(nc(N3CCOCC3)n2CC/N=C2/CCCN2)n(C)c1=O` [CBK267709C], 85.9%; under `O=C(O)CCC(=O)Nc1ccccc1C(=O)N1CCCCCC1` [CBK269863], 86.3%.
The same measure, in the same setting: under `N#Cc1cccc(CN2CCCC3(CCN(C(=O)c4cc(F)c(F)cc4F)C3)C2)c1` (centres unmarked) [CBK131993] stands 100%; under `Cc1ccc(C(=O)NCCN2CCOCC2)c(NCCCn2ccnc2)n1` [CBK076371], 115%; under `COC(=O)C(C)(C)NC(=O)c1ccn(-c2cc(C)ccc2OC)n1` [CBK305989], 107%.
Same read-out and setting: under `CCCn1c(O)cc(=O)nc1SCC(=O)N1CCCc2ccccc21` [CBK304977] stands 79.1%; under `O=C(NC(Sc1ncccn1)C(=O)c1ccccc1)c1ccccc1` (centres unmarked) [CBK025806], 95.5%.
Take `O=C(c1c(NS(=O)(=O)c2ccc3ccccc3c2)sc2c1CCCC2)N1CCOCC1` [CBK028636]: the viability at 28.5 h, 10 µM amounted to 94.4%.
As for `O=C(c1ccccc1)c1ccc(OCC(O)CN2CCN(c3ccccn3)CC2)cc1` (centres unmarked) [CBK266513], the viability at 28.5 h, 10 µM came out at 98.3%.
Still for that read-out and setting: under `CC(Nc1nc(N2CCNCC2)nc2ccccc12)c1ccccc1` (centres unmarked) [CBK266475] stands 102%.
On the same count and under the same terms, under `CCn1c(COc2ccccc2)nnc1Sc1ccc([N+](=O)[O-])cc1C=O` [CBK267888] stands 105%; under `O=C(O)CCCn1cc(NC(=O)c2cccs2)cn1` [CBK270122], 88.1%.
As for `Cc1cc(/C=C2\C(=O)NC(=O)N(C)C2=O)c(C)n1-c1ccc(Oc2ccc([N+](=O)[O-])cn2)cc1` [CBK264294], the viability at 28.5 h, 10 µM (bulk resorufin, single well) came out at 100%.
Regarding `Cc1cc(C(C)(C)C)cc(S(=O)(=O)Nc2ccc(O)c(C(=O)O)c2)c1C` [CBK266196], the viability at 28.5 h, 10 µM stood at 101%.
For `O=c1cc(CN2CCC(Cc3ccccc3)CC2)[nH]c(=O)[nH]1` [CBK126388], the viability at 28.5 h, 10 µM was found to be 104%.
On the same count and under the same terms, as for `CC(C)n1cnc2ccc(-c3noc(-c4nccc5ccccc45)n3)cc21` [CBK288617], the figure is 109%.
Still for that read-out and setting: under `CCOC(=O)c1cccc(NS(=O)(=O)c2c(C)noc2C)c1` [CBK034339] stands 110%; under `O=C(Oc1cccc(/C=N/NC(=O)c2ccccn2)c1)c1cccc(Br)c1` [CBK262115], 90.5%; under `C#CCNS(=O)(=O)c1cccc(C(=O)NC2CCOc3ccccc32)c1` (centres unmarked) [CBK305430], 111%.
On the same count and under the same terms, under `O=C(CN1CCC(O)(Cc2ccccc2)CC1)N1CCCCCC1` [CBK283500] stands 96.9%; under `Nc1ccc(OCc2nc3ccccc3n2CC(=O)O)cc1` [CBK270099], 96%.
As for `Oc1cccc(OCCOc2cc(C(F)(F)F)ccn2)c1` [CBK115788], the viability at 28.5 h, 10 µM was found to be 84.8%.
Turning to `CCn1cc(NC(=O)C(CC)(CC)CN)ccc1=O` [CBK304320C], the viability at 28.5 h, 10 µM is 89.2%.
`COc1cc(C)cc(OC)c1-c1ncnc(C)c1C` [CBK306762]: the viability at 28.5 h, 10 µM was 85.7%.
On the same count and under the same terms, as for `Cc1cc(-c2cc(=O)n(Cc3ccccc3)nc2C2CC2)on1` [CBK284365], the figure is 86.2%; as for `CCN1CCN(C(=O)c2c(-c3ccccc3)noc2C)CC1` [CBK200251], 96.5%.
Same read-out and setting: as for `O=C(O)CSc1n[nH]c(=O)[nH]c1=O` [CBK217819], the figure is 94.8%.
Still for that read-out and setting: under `COc1ccc(C2=CC(c3ccc(Cl)cc3)N3N=CNC3=N2)cc1OC` (centres unmarked) [CBK287966] stands 84.3%; under `COc1ccc(C(C)C)cc1-c1cncc(Nc2ccc(Cl)cc2)n1` [CBK065285], 108%; under `CC(Nc1cc(Cl)c(C(F)(F)F)cc1[N+](=O)[O-])c1ccc2[nH]c(=O)[nH]c2c1` (centres unmarked) [CBK297721], 86.7%.
As to `COC(=O)NC(O)C(=O)c1cccs1` (centres unmarked) [CBK027755], the viability at 28.5 h, 10 µM was 93.8%.
As for `COc1ccc(OCC(=O)Nc2ccc3c(c2)nc2n3CCN(Cc3ccccc3)C2)cc1` [CBK266989], the viability at 28.5 h, 10 µM is 97.6%.
Same read-out and setting: under `Cc1csc(C(Cc2ccsc2)NCC2=CCCOC2)n1` (centres unmarked) [CBK282439] stands 101%; under `CCOc1cc2c(cc1NC(=O)CN(c1cccc(Cl)c1)S(C)(=O)=O)OC(C)C2` (centres unmarked) [CBK248179], 94.6%; under `CC(C)(C)OC(=O)N1CCC(Oc2ccc(CN)cc2)CC1` [CBK004131], 81.7%.
For the compound `Cc1ccc(NC(=O)CN2C(=O)S/C(=C\c3cc(C)n(-c4cccc(C(=O)O)c4)c3C)C2=O)cc1` [CBK264725], the viability at 28.5 h, 10 µM amounted to 89.9%.
In the case of `O=C1CNC(=S)N1c1cccc(C(F)(F)F)c1` [CBK288398], the viability at 28.5 h, 10 µM was found to be 104%.
Same read-out and setting: under `Cc1ccc(-c2cc(C(=O)NCc3ccc(-c4ccc(C(N)=O)c(C)n4)cc3)no2)cc1` [CBK285644] stands 116%; under `Oc1cccnc1N1CCNCC1` [CBK045850], 88.8%.
Same read-out and setting: under `O=C(O)CCc1ccc(-c2ccc(F)cc2)n1-c1cc(Cl)ccc1Cl` [CBK264754] stands 111%.
Same read-out and setting: as for `COc1ccc(CCC2CCN(C)CC2)c(O)c1` [CBK283668], the figure is 104%; as for `O=C1C2C3C=CC(C2C(=O)N1CCO)C1C2C(=O)N(CCO)C(=O)C2C31` (centres unmarked) [CBK263016], 101%; as for `Nc1nonc1-c1nc2ccccc2n1Cc1cc2c(cc1Br)OCO2` [CBK267961], 105%.
Consider `O=[N+]([O-])c1nn(-c2ccc3c(c2)OCCO3)[n+]([O-])c1NCCN1CCN(c2ccccc2F)CC1` [CBK268314], for which the viability at 28.5 h, 10 µM is 109%.
As for `O=C(O)CC1Cn2ncc(-c3ccccc3)c2NC1=O` (centres unmarked) [CBK288187], the viability at 28.5 h, 10 µM worked out at 89.5%.
With `Cn1ccnc1CCC1CCCCN1C(=O)NCc1cccc(F)c1` (centres unmarked) [CBK307124], the viability at 28.5 h, 10 µM came to 93.5%.
The same measure, in the same setting: under `S=c1[nH]cnc2c1[nH]c1ccc(Br)cc12` [CBK288487] stands 102%.
In the case of `COc1ccc(-n2c(Cc3ccccc3)nnc2SCC(=O)c2ccccc2)cc1` [CBK265989], the viability at 28.5 h, 10 µM amounted to 105%.
Still for that read-out and setting: under `CCc1c(C)sc(NC(=O)C2C3C=CC(C3)C2C(=O)O)c1C(N)=O` (centres unmarked) [CBK265433] stands 97.9%; under `Oc1cc2cccnc2nc1-c1ccc2c(c1)CCO2` [CBK073698], 76%; under `Cn1cc(C2c3ccccc3C(=O)N2CC(=O)O)c2ccccc21` (centres unmarked) [CBK286555], 90.2%.
Still for that read-out and setting: under `CN(C)CCn1c(=O)c2c(ncn2C)n(C)c1=O` [CBK012590] stands 115%; under `Nc1nc(CC(=O)N2CCCCC2)cs1` [CBK049866], 97.9%; under `COc1ccc(N(CC(=O)NC2CC3CCC2C3)S(=O)(=O)c2ccc(C)cc2)cc1` (centres unmarked) [CBK266574], 108%.
Still for that read-out and setting: under `COC(=O)c1cn(C(=O)c2snnc2C)nc1C(C)(C)C` [CBK021420] stands 89.2%.
Regarding `CC(C)(C)c1ccc(-n2cc(-c3ccc(Cl)cc3)nn2)cc1` [CBK113031], the viability at 28.5 h, 10 µM came to 102%.
Regarding `O=C(O)CC1SC(Nc2cc(C(F)(F)F)cc(C(F)(F)F)c2)=NC1=O` (centres unmarked) [CBK059095], the viability at 28.5 h, 10 µM came out at 89.8%.
Same read-out and setting: under `Cc1ccccc1-c1ccc(C(=O)NCCc2ccc(S(N)(=O)=O)cc2)c(NCc2cccnc2)n1` [CBK076116] stands 98.4%.
Same read-out and setting: as for `CCN(CC)C(=O)c1ccc(-c2ccc(NC(C)=O)cc2)nc1` [CBK158850], the figure is 101%.
In the case of `CCC1CCCCN1C(=O)c1ccc(C)c(Br)c1` (centres unmarked) [CBK081559], the viability at 28.5 h, 10 µM is 100%.
Still for that read-out and setting: under `O=C1COc2ccccc2C/C=C/CC2(CCN(C(=O)Cc3cccnc3)CC2)C(=O)NCCN1` [CBK292153] stands 110%; under `C[C@@H](Nc1nc(-c2cc(C(F)(F)F)cc(C(F)(F)F)c2)cnc1N)c1ccccc1` [CBK063720], 105%; under `O=C1NCCN1CCOc1nccnc1-c1ccsc1` [CBK106766], 93.4%.
Still for that read-out and setting: under `CCN(CC(=O)NCc1ccncc1)S(=O)(=O)c1ccccc1` [CBK269537] stands 88.7%.
Still for that read-out and setting: under `Cc1cc(=O)n2c(c1C#N)SCC2` [CBK027807] stands 102%; under `CCS(=O)(=O)N1CCN(Cc2ccccc2OC)CC1` [CBK264280G], 92.7%.
Consider `CCOc1ccccc1NC(=O)C(C)Oc1ccc(OC)cc1` (centres unmarked) [CBK266648], for which the viability at 28.5 h, 10 µM came to 39.6%.
On the same count and under the same terms, under `N#Cc1ccccc1/C=N/NC(=O)COc1ccc(-c2cc(-c3ccccc3)c3cc(Cl)ccc3n2)cc1` [CBK263337] stands 89.1%; under `CCN(CC)c1ccc(NC(=O)N(CCCN2CCOCC2)Cc2ccc(OC)c(OC)c2)cc1` [CBK159168], 91.1%; under `CCCNc1nc(Cl)nc(NC(C)(C)C)n1` [CBK091674], 86.3%.
Consider `O=C(N[C@H]1CO[C@H]2[C@@H]1OC[C@@H]2Nc1nccc(-c2cccs2)n1)c1ccccc1` [CBK289516], for which the viability at 28.5 h, 10 µM is 84.5%.
Consider `COc1cccc(/C=C\c2onc(C)c2[N+](=O)[O-])c1OCC(=O)O` [CBK269063], for which the viability at 28.5 h, 10 µM was determined as 104%.
Turning to `COc1ccc(Cl)cc1NC(=S)NCCc1ccc(S(N)(=O)=O)cc1` [CBK267198], the viability at 28.5 h, 10 µM amounted to 85.6%.
Take `Cc1ccc(C(=O)NC(=S)Nc2cccc(NC(=O)c3ccccc3C)c2)cc1` [CBK264049]: the viability at 28.5 h, 10 µM worked out at 95.1%.
The same measure, in the same setting: under `S=c1nccc(N2CCC(Cc3ccccc3)CC2)[nH]1` [CBK288361] stands 112%; under `CC1(C)CC(/N=C(\c2ccccc2)c2ccc(O)cc2O)CC(C)(C)N1` [CBK262004], 101%; under `O=C(Nc1ccccc1)[C@H]1O[C@H](CCN2CCN(c3ccccc3)CC2)CC[C@@H]1O` [CBK288725], 84.1%.
On the same count and under the same terms, as for `Nc1ccc2c(c1)/C(=C/c1c[nH]c3ncccc13)C(=O)N2` [CBK010155T], the figure is 103%.

For the origin of these results see paper PMC12040169 (PLOS Biology, 2025).
